# Data reported in patent US12612386B2, “Heteroaryl-triazole compounds as pesticides” (Bayer Aktiengesellschaft, priority 2020, dated 2026).
# Legend:
# Assay type in all cases: in vivo
# [1] = test system: larvae of the banded cucumber beetle (Diabrotica balteata); test: Diabrotica balteata spray test; settings: 168 h, 100 g/ha (=32 μg/well), after 7 days, read-out: efficacy (seedling growth)
# Method: Diabrotica balteata—Spray Test
# (§1) • Solvent: 78.0 parts by weight of acetone • 1.5 parts by weight of dimethylformamide • Emulsifier: alkylarylpolyglycol ether
# (§2) To produce a suitable preparation of active compound, 1 part by weight of active compound is mixed with the stated amount of solvent, and the concentrate is diluted with water, containing an emulsifier concentration of 1000 ppm, to the desired concentration. Further test concentrations are prepared by dilution with emulsifier containing water.
# Soaked wheat seeds (Triticum aestivum) are placed in a multiple well plate filled with agar and some water and are incubated for 1 day to germinate (5 seeds per well). The germinated wheat seeds are sprayed with a test solution containing the desired concentration of the active ingredient. Afterwards each unit is infected with 10-20 larvae of the banded cucumber beetle (Diabrotica balteata).
# After 7 days efficacy in % is determined. 100% means all the seedlings have grown up like in the untreated, uninfected control; 0% means none of the seedlings have grown.
# [2] = test system: fall armyworm larvae (Spodoptera frugiperda); test: whole plant or invertebrate; settings: 168 h
# Method: Spodoptera frugiperda—Spray Test
# • Solvent: 78.0 parts by weight acetone • 1.5 parts by weight dimethylformamide • Emulsifier: alkylarylpolyglycol ether
# To produce a suitable preparation of active compound, 1 part by weight of active compound is mixed with the stated amount of solvents and is diluted with water, containing an emulsifier concentration of 1000 ppm, to the desired concentration. Further test concentrations are prepared by dilution with emulsifier containing water.
# Maize (Zea mays) leaf sections are sprayed with a preparation of the active ingredient of the desired concentration. Once dry, the leaf sections are infested with fall armyworm larvae (Spodoptera frugiperda).
# After 7 days mortality in % is determined. 100% means all caterpillars have been killed and 0% means none of the caterpillars have been killed.
# Spodoptera frugiperda—Spray Test (SPODFR)
# After the specified period of time, mortality in % is determined. 100% means all caterpillars have been killed and 0% means none of the caterpillars have been killed.
# [3] = test system: larvae of the southern green stink bug (Nezara viridula); test: whole plant or invertebrate; settings: 96 h
# Method: Nezara viridula—Spray Test
# as §1, §2
# Barley plants (Hordeum vulgare) are sprayed with a test solution containing the desired concentration of the active ingredient and are infested with larvae of the southern green stink bug (Nezara viridula).
# After 4 days mortality in % is determined. 100% means all the stink bugs have been killed; 0% means none of the stink bugs have been killed.
SMILES,"pest or weed control at 32 µg/disc, 100 g/ha [1] [%]",mortality at 100 g/ha [2] [%],mortality at 100 g/ha [3] [%],mortality at 500 g/ha [3] [%]
C[C@H](NC(=O)c1cc(OC(F)(F)F)cc(C2CC2)c1)c1nc(C2CC2)nn1-c1cc(C(N)=O)ncn1 [I-146],100,100,,
C[C@H](NC(=O)c1cc(OC(F)(F)F)cc(OC(F)(F)F)c1)c1nc(C2CC2)nn1-c1cc(C(=O)N(C)C)ncn1 [I-165],100,100,,
Cc1nc([C@H](C)NC(=O)c2cc(OC(F)F)cc(OC(F)F)c2)n(-c2cc(C(=O)N(C)C(C)C)ncn2)n1 [I-100],,83,,
C[C@H](NC(=O)c1cc(C(F)(F)F)cc(C(F)(F)F)c1)c1nc(C2CC2)nn1-c1cc(C(N)=O)ncn1 [I-105],100,100,,
C[C@H](NC(=O)c1cc(Br)cc(OC(F)F)c1)c1nc(C2CC2)nn1-c1cc(C(N)=O)ncn1 [I-104],100,100,,
Cc1nc([C@H](C)NC(=O)c2cc(Br)cc(C#N)c2)n(-c2cc(C(N)=O)ncn2)n1 [I-127],100,100,90,100
"C[C@H](NC(=O)c1cc(Br)cc(OC(F)(F)F)c1)c1nc(C2CC2)nn1-c1cc(C#N)ncn1 [I-15, 3-bromo-N-[(1S)-1-[2-(6-cyanopyrimidin-4-yl)-5-cyclopropyl-1,2,4-triazol-3-yl]ethyl]-5-(trifluoromethoxy)benzamide]",100,100,,
Cc1nc([C@H](C)NC(=O)c2cc(Cl)cc(C#N)c2)n(-c2cc(C(N)=O)ncn2)n1 [I-131],100,,,100
CC(C)N(C)C(=O)c1cc(-n2ncnc2[C@H](C)NC(=O)c2cccc(OC(F)(F)F)c2)ncn1 [I-111],,100,,
C[C@H](NC(=O)c1cc(OC(F)F)cc(C2CC2)c1)c1nc(C2CC2)nn1-c1cc(C(N)=O)ncn1 [I-153],100,100,,
C[C@H](NC(=O)c1cc(OC(F)(F)F)cc(S(=O)(=O)C(F)F)c1)c1nc(C2CC2)nn1-c1cc(C(N)=O)ncn1 [I-144],,100,,
"C[C@H](NC(=O)c1cc(Cl)cc(OC(F)(F)C(F)(F)I)c1)c1ncnn1-c1cc(C(N)=O)ncn1 [I-114, 6-(5-{(1S)-1-[3-chloro-5-(1,1,2,2-tetrafluoro-2-iodoethoxy)benzamido]ethyl}-1H-1,2,4-triazol-1-yl)pyrimidine-4-carboxamide]",100,100,,
C[C@H](NC(=O)c1cc(Br)cc(Br)c1)c1nc(C2CC2)nn1-c1cc(C(=O)N(C)C)ncn1 [I-158],100,100,,
C[C@H](NC(=O)c1cc(Br)cc(OC(F)F)c1)c1nc(C2CC2)nn1-c1cc(C#N)ncn1 [I-16],100,,,
CNC(=O)c1cc(-n2nc(C)nc2[C@H](C)NC(=O)c2cc(Cl)cc(S(C)(=O)=O)c2)ncn1 [I-62],,83,,100
C[C@H](NC(=O)c1cc(OC(F)(F)F)cc(S(=O)(=O)C(F)(F)F)c1)c1ncnn1-c1cc(C#N)ncn1 [I-91],100,100,,
Cc1nc([C@H](C)NC(=O)c2cc(Cl)cc(S(=O)(=O)C(F)F)c2)n(-c2cc(C#N)ncn2)n1 [I-27],100,100,,
C[C@H](NC(=O)c1cc(C(F)(F)F)cc(S(C)(=O)=O)c1)c1nc(C2CC2)nn1-c1cc(C(N)=O)ncn1 [I-108],,100,,
C[C@H](NC(=O)c1cc(OC(F)(F)F)cc(C2CC2)c1)c1nc(C2CC2)nn1-c1cc(C#N)ncn1 [I-17],100,,,
CSc1cc(OC(F)F)cc(C(=O)N[C@@H](C)c2nc(C3CC3)nn2-c2cc(C(N)=O)ncn2)c1 [I-137],,100,,

SMILES,"pest or weed control at 32 µg/disc, 100 g/ha [1] [%]",mortality at 100 g/ha [2] [%],mortality at 100 g/ha [3] [%],mortality at 500 g/ha [3] [%]
C[C@H](NC(=O)c1cc(C(F)F)cc(C(F)F)c1)c1nc(C2CC2)nn1-c1cc(C(N)=O)ncn1 [I-147],,100,,100
C[C@H](NC(=O)c1cc(C#N)cc(OC(F)(F)F)c1)c1nc(C2CC2)nn1-c1cc(C#N)ncn1 [I-53],100,,,
C[C@H](NC(=O)c1cc(Cl)cc(S(=O)(=O)c2ccc(Cl)cc2)c1)c1ncnn1-c1cc(C#N)ncn1 [I-11],80,100,,
C[C@H](NC(=O)c1cc(Cl)cc(S(=O)(=O)C(F)(F)F)c1)c1nc(C2CC2)nn1-c1cc(C(N)=O)ncn1 [I-109],100,100,,
CC(C)N(C)C(=O)c1cc(-n2ncnc2[C@H](C)NC(=O)c2cc(Br)cc(OC(F)(F)C(F)F)c2)ncn1 [I-123],,100,,
Cc1nc([C@H](C)NC(=O)c2cc(Br)cc(OC(F)F)c2)n(-c2cc(C#N)ncn2)n1 [I-26],100,100,,
Cc1nc([C@H](C)NC(=O)c2cc(Cl)cc(S(=O)(=O)C(F)(F)F)c2)n(-c2cc(C#N)ncn2)n1 [I-24],100,100,,
CNC(=O)c1cc(-n2nc(C3CC3)nc2[C@H](C)NC(=O)c2cc(OC(F)(F)F)cc(S(C)(=O)=O)c2)ncn1 [I-155],,100,,100
C[C@H](NC(=O)c1cc(Cl)cc(OC(F)(F)F)c1)c1nc(C2CC2)nn1-c1cc(C(N)=O)ncn1 [I-106],100,100,,
C[C@H](NC(=O)c1cc(OC(F)(F)F)cc(S(=O)(=O)C(F)(F)F)c1)c1nc(C2CC2)nn1-c1cc(C(=O)N(C)C)ncn1 [I-157],100,100,,
Cc1nc([C@H](C)NC(=O)c2cc(F)cc(C#N)c2)n(-c2cc(C(N)=O)ncn2)n1 [I-96],,,,100
C[C@H](NC(=O)c1cc(Br)cc(C2CC2(Cl)Cl)c1)c1ncnn1-c1cc(C#N)ncn1 (stereo partly drawn) [I-54],100,100,,
C[C@H](NC(=O)c1cc(OC(F)(F)F)cc(S(C)(=O)=O)c1)c1nc(C2CC2)nn1-c1cc(C#N)ncn1 [I-14],100,,,
"C[C@H](NC(=O)c1cc(Br)cc(OC(F)(F)F)c1)c1nc(C2CC2)nn1-c1cc(C(N)=O)ncn1 [I-13, 6-[5-[(1S)-1-[[3-bromo-5-(trifluoromethoxy)benzoyl]amino]ethyl]-3-cyclopropyl-1,2,4-triazol-1-yl]pyrimidine-4-carboxamide]",100,100,,
C[C@H](NC(=O)c1cc(S(=O)(=O)C(F)(F)F)cc(S(=O)(=O)C(F)(F)F)c1)c1nc(C2CC2)nn1-c1cc(C(N)=O)ncn1 [I-107],100,100,,
C[C@H](NC(=O)c1cc(Br)cc(Br)c1)c1nc(C2CC2)nn1-c1cc(C(N)=O)ncn1 [I-145],100,100,,
C[C@H](NC(=O)c1cc(OC(F)(F)F)cc(C2(C#N)CC2)c1)c1nc(C2CC2)nn1-c1cc(C#N)ncn1 [I-43],80,100,,
CC(NC(=O)c1cc(OC(F)(F)F)cc(S(=O)(=O)C2CC2)c1)c1ncnn1-c1cc(C#N)ncn1 (stereo not drawn) [I-9],,100,,
C[C@H](NC(=O)c1cc(OC(F)(F)F)cc(S(C)(=O)=O)c1)c1nc(C2CC2)nn1-c1cc(C(N)=O)ncn1 [I-47],100,100,,
C[C@H](NC(=O)c1cc(Cl)cc(S(=O)(=O)C(F)F)c1)c1nc(C2CC2)nn1-c1cc(C(N)=O)ncn1 [I-151],,83,,
